Data as given in patent US20040101477A1, “Individualization of therapy with anesthetics” (Xanthus Life Sciences, Inc., priority 2002, published 2004).
Like-named read-outs stand apart in the source and are kept apart here. Marks after values point to notes of the source that are not given here.

How the values were obtained:
[1] = system: cytochrome P-450; conditions: microsomal preparations; cited from earlier work
[2] = system: spermatogonia cells and bone marrow cells; conditions: rat, one-year exposure, 1 and 10 ppm, with nitrous oxide; cited from earlier work
[3] = system: Chinese hamster ovary cells; conditions: cited from earlier work
[4] = 37° C.; cited from earlier work
[5] = subanesthetic and/or anesthetic concentrations; cited from earlier work
[6] = humans; cited from earlier work
[7] = mouse, inhalation, 0.05%, 18 months; cited from earlier work
[8] = system: human leukocyte culture; conditions: cited from earlier work
[9] = rat, 10 ppm, with nitrous oxide; cited from earlier work
[10] = cited from earlier work; for metabolized fraction of the absorbed anesthetic: in vivo
[11] = system: Chinese hamster lung fibroblast; conditions: cited from earlier work
[12] = system: AAMU-Ab; assay: Competitive antigen ELISA, cross-reactivity of AAMU-Ab; format: binding, rabbit; conditions: 0 = absence of inhibition or inhibition no higher than 40% at 5 × 10^−3 M
Method: (§1) Buffers and water without additives are filtered through millipore filters and kept for 1 week. BSA, antibodies, Tween™ 20 and horse radish peroxidase conjugates are added to these buffers and water just prior to use. Urine samples are usually collected 4 hours after drinking a cup of coffee (instant or brewed with approximately 100 mg of caffeine per cup) and stored at 80° C. The urine samples are diluted 10 times with sodium phosphate buffer (620 mosm, pH 7.50) and are subsequently diluted with water to give concentrations of AAMU and 1× no higher than 3×10^−6 M in the ELISA. All the pipettings are done with an eight-channel pipette, except those of the antibody and sample solutions. Starting with the last well, 100 μL of a carbonate buffer (100 mM, pH 9.6) containing 2.5 μg mL-^1 antibodies are added to each well. After 90 min. at room temperature, the wells are washed three times with […] of TPB: isotonic sodium phosphate buffer (310 mosm, pH 7.50) containing 0.05% Tween™ 20.
(§2) After the initial wash, unoccupied sites are blocked by incubation for 90 min. at room temperature with 100 μL TBP containing 3% BSA. The wells are washed four times with 100 μL TPB. […] The microplate is gently shaken with an orbital shaker at room temperature for 3-4 hours. The wells are washed three times with 100 μL TPB containing 1% BSA and three times with water containing 0.05% Tween™ 20. To the washed plate is added 150 μL of a substrate buffer composed of citric acid (25 mM) and sodium phosphate dibasic buffer (50 mM, pH 5.0) containing 0.06% hydrogen peroxide and 0.04% o-phenylenediamine hydrochloride.
(§3) Buffers and water without additives were filtered through millipore filters and kept for 1 week. BSA, antibodies, Tween™ 20 and horse radish peroxidase conjugates were added to these buffers and water just prior to use. Urine samples were usually collected 4 hours after drinking a cup of coffee (instant or brewed with approximately 100 mg of caffeine per cup) and stored at −80° C. They were diluted 10 times with sodium phosphate buffer (620 mosm, pH 7.50) and were subsequently diluted with water to give concentrations of AAMU and 1× no higher than 3×10^−6 M in the ELISA. All the pipettings were done with an eight-channel pipette, except those of the antibody and sample solutions. Starting with the last well, 100 μL of a carbonate buffer (100 mM, pH 9.6) containing 2.5 μg mL-^1 antibodies was pipetted. After 90 min. at room temperature, the wells were washed three times with 100 μL of TPB: isotonic sodium phosphate buffer (310 mosm, pH 7.50) containing 0.05% Tween™ 20.
(§4) After the initial wash, unoccupied sites were blocked by incubation for 90 min. at room temperature with 100 μL TBP containing 3% BSA. The wells were washed four times with 100 μL TPB. […] The microplate was gently shaken with an orbital shaker at room temperature for 3-4 hours. The wells were washed three times with 100 μL with TPB containing 1% BSA and three times with water containing 0.05% Tween™ 20. To the washed plate was added 150 μL of a substrate buffer composed of citric acid (25 mM) and sodium phosphate dibasic buffer (50 mM, pH 5.0) containing 0.06% hydrogen peroxide and 0.04% o-phenylenediamine hydrochloride. After 20 min. at room temperature with shaking, the reaction was stopped with 50 μL of 2.5 N HCl.
(§5) The cross reactivities of AAMU-Ab and 1×-Ab were tested using a wide variety of caffeine metabolites and structural analogs (Table 2 below). AAMU-Ab appeared highly specific for binding AAMU, while 1×-Ab appeared relatively specific for binding 1×.

[13] = system: 1X-Ab; assay: Competitive antigen ELISA, cross-reactivity of 1X-Ab; format: binding, rabbit; conditions: 0 = absence of inhibition or inhibition no higher than 40% at 5 × 10^−3 M
Method: as §1, §2, §3, §4, §5

[14] = cited from earlier work

SMILES | % Cross-Reaction AAMU-Ab [12] | % Cross-Reaction 1X-Ab [13] | further results
FC(F)(F)C(Cl)Br (racemic) [Halothane, 2-bromo-2-chloro-1,1,1-trifluoro-ethane] |  |  | concentration that destroys cytochrome P-450 [1]: 18800 µM; mutagenesis, chromosomal damage [2]: chromosomal damage to spermatogonia cells and bone marrow cells; mutagenesis, sister chromatid exchange [3]: Negative; blood/gas coefficient [4]: 2.5; olive oil/water coefficient [4]: 220; teratogenic effects [5]: teratogenic, embryotoxic, and fetotoxic; minimum alveolar concentration (MAC) [6]: 0.64%; carcinogenicity [7]: no evidence of anesthetic-related carcinogenicity; mutagenesis, human leukocyte culture assay [8]: Negative; fertility [9]: decreased fertility; metabolized fraction of the absorbed anesthetic [10]: 25-45%; mutagenesis, Chinese hamster lung fibroblast assay [11]: Negative
Cn1c(=O)c2c(ncn2C)n(C)c1=O [1,3,7-Trimethyl Xanthine (Caffeine), 1,3,7-Trimethyl Xanthine] | 0% | 0% | 
Cn1c(=O)c2[nH]cnc2n(C)c1=O [1,3-Dimethyl Xanthine (Theophylline), 1,3-Dimethyl Xanthine] | 0% | 0.2% | 
Cn1c(=O)[nH]c2ncn(C)c2c1=O [1,7-Dimethyl Xanthine (Paraxanthine), 1,7-Dimethyl Xanthine] | 0% | 0.5% | 
Cn1c(=O)[nH]c2[nH]c(=O)n(C)c2c1=O [1,7-Dimethyluric acid] | 0% | 0% | 
Cn1c(=O)[nH]c2nc[nH]c2c1=O [1-Methyl Xanthine (1X), 1-Methyl Xanthine] | 0% | 100% | 
Cn1c(=O)[nH]c2[nH]c(=O)[nH]c2c1=O [1-Methyluric acid] | 0% | 11% | 
Cn1cnc2c1c(=O)[nH]c(=O)n2C [3,7-Dimethyl Xanthine (Theobromine), 3,7-Dimethyl Xanthine] | 0% | 0% | 
Cn1c(=O)[nH]c(=O)c2[nH]cnc21 [3-Methyl Xanthine] | 0% | 0% | 
CC(=O)Nc1c(N)n(C)c(=O)n(C)c1=O [5-Acetamino-6-amino-1,3-dimethyluracil] | 0% | 0% | 
CC(=O)Nc1c(N)n(C)c(=O)[nH]c1=O [5-Acetamino-6-amino-1-methyluracil] | 100% | 0% | 
CC(=O)Nc1c(N)[nH]c(=O)[nH]c1=O [5-Acetamino-6-amino-uracil] | 0.6% | 0% | 
Cn1cnc2[nH]c(=O)[nH]c(=O)c21 [7-Methyl Xanthine] | 0% | 0% | 
Cc1nc2[nH]c(=O)[nH]c(=O)c2[nH]1 [8-Methyl Xanthine] | 0% | 0% | 
FC(F)OC(F)(F)C(F)Cl (stereo not drawn) [Enflurane] |  |  | concentration that destroys cytochrome P-450 [1]: 13300 µM; metabolized fraction of the absorbed anesthetic [10]: 2-8%
Nc1nc2nc[nH]c2c(=O)[nH]1 [Guanine] | 0% | 0% | 
O=c1[nH]cnc2nc[nH]c12 [Hypoxanthine] | 0% | 0% | 
O=c1cc[nH]c(=O)[nH]1 [Uracil] | 0% | 0% | 
O=c1[nH]c(=O)c2[nH]c(=O)[nH]c2[nH]1 [Uric acid] | 0% | 0% | 
O=c1[nH]c(=O)c2[nH]cnc2[nH]1 [Xanthine] | 0^a % | 0% | 
Nc1ccc(S(=O)(=O)c2ccc(N)cc2)cc1 [dapsone] |  |  | adverse reactions ([14]; fast acetylators): 17%; adverse reactions ([14]; slow acetylators): 46%
FC(F)OC(Cl)C(F)(F)F (stereo not drawn) [isoflurane] |  |  | metabolism, fraction of the absorbed anesthetic ([10]; estimated): approximately 0.2%
COC(F)(F)C(Cl)Cl [methoxyflurane] |  |  | concentration that destroys cytochrome P-450 [1]: 5800 µM
